In patent US20100298141A1, “SUBSTITUTED PYRIDINE N-OXIDE HERBICIDES” (E. I. DU PONT DE NEMOURS AND COMPANY, priority 2007, published 2010):

Assays:
[1] = tested on: field bindweed; experiment: Test F preemergence test; type: in vivo, Convolvulus arvensis; settings: scale 0 to 100
How it was run: (§1)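 Greenhouse screen: test chemical in surfactant-containing non-phytotoxic solvent applied preemergence to sown seeds or postemergence to sugarcane plants; after 14 to 21 days each species scored visually versus controls.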

[2] = tested on: johnsongrass; experiment: Test F preemergence test; type: in vivo, Sorghum halepense; settings: scale 0 to 100
How it was run: as §1

[3] = tested on: naked crabgrass; experiment: Test F preemergence test; type: in vivo, Digitaria nuda; settings: scale 0 to 100
How it was run: as §1

[4] = tested on: pitted morningglory; experiment: Test F preemergence test; type: in vivo, Ipomoea lacunosa; settings: scale 0 to 100
How it was run: as §1

[5] = tested on: chickweed; experiment: Test C postemergence test; type: in vivo, Stellaria media; settings: for Plant response rating, Chickweed: scale 0 to 100, 0 no effect, 100 complete control
How it was run: (§2)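 Postemergence sprays of formulated test chemicals on plants 2 to 18 cm tall (1- to 4-leaf stage). Greenhouse hold for 13 to 15 days, then visual rating of each species against untreated controls; dash means no test result.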

[6] = tested on: green foxtail; experiment: Test F preemergence test; type: in vivo, Setaria viridis; settings: scale 0 to 100
How it was run: as §1

[7] = tested on: winter barley; experiment: Test C postemergence test; type: in vivo, Hordeum vulgare; settings: for Plant response rating, Barley: scale 0 to 100, 0 no effect, 100 complete control
How it was run: as §2

[8] = tested on: common groundsel; experiment: Test F preemergence test; type: in vivo, Senecio vulgaris; settings: scale 0 to 100
How it was run: as §1

[9] = tested on: dallisgrass; experiment: Test F preemergence test; type: in vivo, Paspalum dilatatum; settings: scale 0 to 100
How it was run: as §1

[10] = tested on: guineagrass; experiment: Test F preemergence test; type: in vivo, Panicum maximum; settings: scale 0 to 100
How it was run: as §1

[11] = tested on: common purslane; experiment: Test F preemergence test; type: in vivo, Portulaca oleracea; settings: scale 0 to 100
How it was run: as §1

[12] = tested on: annual bluegrass; experiment: Test F preemergence test; type: in vivo, Poa annua; settings: scale 0 to 100
How it was run: as §1

[13] = tested on: common mallow; experiment: Test F preemergence test; type: in vivo, Malva sylvestris; settings: Preemergence, scale 0 to 100
How it was run: as §1

[14] = tested on: Russian thistle; experiment: Test F preemergence test; type: in vivo, Salsola kali; settings: scale 0 to 100
How it was run: as §1

[15] = tested on: prickly sida; experiment: Test F preemergence test; type: in vivo, Sida spinosa; settings: scale 0 to 100
How it was run: as §1

[16] = tested on: itchgrass; experiment: Test F preemergence test; type: in vivo, Rottboellia cochinchinensis; settings: scale 0 to 100
How it was run: as §1

[17] = tested on: common sowthistle; experiment: Test F preemergence test; type: in vivo, Sonchus oleraceous; settings: scale 0 to 100
How it was run: as §1

[18] = tested on: Virginia dayflower; experiment: Test F preemergence test; type: in vivo, Commelina virginica; settings: Preemergence, scale 0 to 100
How it was run: as §1

## CC(c1c(C(F)(F)F)nn(C)c1OC(F)F)S(=O)(=O)c1cccc[n+]1[O-] (stereo not drawn) [Compound 5]
[1]; 8 g ai/ha, preemergence
  Plant response rating, Field Bindweed: 0
[1]; 62 g ai/ha, Preemergence
  Field Bindweed plant response rating: 0
[1]; Preemergence, 16 g ai/ha
  Plant response rating, Field Bindweed: 0
[1]; Preemergence, 31 g ai/ha
  Plant response rating, Field Bindweed: 0
[2]; 8 g ai/ha, preemergence
  Plant response rating, Johnsongrass: 25
[2]; 62 g ai/ha, Preemergence
  Johnsongrass plant response rating: 100
[2]; Preemergence, 16 g ai/ha
  Plant response rating, Johnsongrass: 50
[2]; Preemergence, 31 g ai/ha
  Plant response rating, Johnsongrass: 100
[3]; 8 g ai/ha, preemergence
  Plant response rating, Crabgrass, Naked: 60
[3]; 62 g ai/ha, Preemergence
  Crabgrass, Naked plant response rating: 100
[3]; Preemergence, 16 g ai/ha
  Plant response rating, Crabgrass, Naked: 95
[3]; Preemergence, 31 g ai/ha
  Plant response rating, Crabgrass, Naked: 100
[4]; 8 g ai/ha, preemergence
  Plant response rating, Morningglory: 0
[4]; 62 g ai/ha, Preemergence
  Morningglory plant response rating: 80
[4]; Preemergence, 16 g ai/ha
  Plant response rating, Morningglory: 50
[4]; Preemergence, 31 g ai/ha
  Plant response rating, Morningglory: 50
[5]; 31 g ai/ha
  Plant response rating (0 to 100), Chickweed: 0
[5]; 62 g ai/ha
  Plant response rating, Chickweed: 0
[5]; 125 g ai/ha
  Plant response rating, Chickweed: 10
[5]; 250 g ai/ha
  Plant response rating, Chickweed: 85
[6]; 8 g ai/ha, preemergence
  Plant response rating, Foxtail, Green: 0
[6]; 62 g ai/ha, Preemergence
  Foxtail, Green plant response rating: 90
[6]; Preemergence, 16 g ai/ha
  Plant response rating, Foxtail, Green: 30
[6]; Preemergence, 31 g ai/ha
  Plant response rating, Foxtail, Green: 70
[7]; 31 g ai/ha
  Plant response rating (0 to 100), Barley: 0
[7]; 62 g ai/ha
  Plant response rating, Barley: 0
[7]; 125 g ai/ha
  Plant response rating, Barley: 20
[7]; 250 g ai/ha
  Plant response rating, Barley: 20
[8]; 8 g ai/ha, preemergence
  Plant response rating, Groundsel: 100
[8]; 62 g ai/ha, Preemergence
  Groundsel plant response rating: 100
[8]; Preemergence, 16 g ai/ha
  Plant response rating, Groundsel: 100
[8]; Preemergence, 31 g ai/ha
  Plant response rating, Groundsel: 100
[9]; 8 g ai/ha, preemergence
  Plant response rating, Dallisgrass: 0
[9]; 62 g ai/ha, Preemergence
  Dallisgrass plant response rating: 98
[9]; Preemergence, 16 g ai/ha
  Plant response rating, Dallisgrass: 65
[9]; Preemergence, 31 g ai/ha
  Plant response rating, Dallisgrass: 75
[10]; 8 g ai/ha, preemergence
  Plant response rating, Guineagrass: 20
[10]; 62 g ai/ha, Preemergence
  Guineagrass plant response rating: 100
[10]; Preemergence, 16 g ai/ha
  Plant response rating, Guineagrass: 100
[10]; Preemergence, 31 g ai/ha
  Plant response rating, Guineagrass: 100
[11]; 8 g ai/ha, preemergence
  Plant response rating, Purslane: 0
[11]; 62 g ai/ha, Preemergence
  Purslane plant response rating: 65
[11]; Preemergence, 16 g ai/ha
  Plant response rating, Purslane: 35
[11]; Preemergence, 31 g ai/ha
  Plant response rating, Purslane: 50
[12]; 8 g ai/ha, preemergence
  Plant response rating, Bluegrass: 0
[12]; 62 g ai/ha, Preemergence
  Bluegrass plant response rating: 75
[12]; Preemergence, 16 g ai/ha
  Plant response rating, Bluegrass: 20
[12]; Preemergence, 31 g ai/ha
  Plant response rating, Bluegrass: 75
[13]; 62 g ai/ha
  Mallow plant response rating: 90
[13]; 16 g ai/ha
  Plant response rating, Mallow: 25
[14]; 8 g ai/ha, preemergence
  Plant response rating, Russian Thistle: 0
[14]; 62 g ai/ha, Preemergence
  Russian Thistle plant response rating: 60
[14]; Preemergence, 16 g ai/ha
  Plant response rating, Russian Thistle: 0
[14]; Preemergence, 31 g ai/ha
  Plant response rating, Russian Thistle: 0
[15]; 8 g ai/ha, preemergence
  Plant response rating, Prickly Sida: 0
[15]; 62 g ai/ha, Preemergence
  Prickly Sida plant response rating: 100
[15]; Preemergence, 16 g ai/ha
  Plant response rating, Prickly Sida: 50
[15]; Preemergence, 31 g ai/ha
  Plant response rating, Prickly Sida: 100
[16]; 8 g ai/ha, preemergence
  Plant response rating, Itchgrass: 10
[16]; 62 g ai/ha, Preemergence
  Itchgrass plant response rating: 90
[16]; Preemergence, 16 g ai/ha
  Plant response rating, Itchgrass: 25
[16]; Preemergence, 31 g ai/ha
  Plant response rating, Itchgrass: 35
[17]; 8 g ai/ha, preemergence
  Plant response rating, Sowthistle: 100
[17]; 16 g ai/ha, preemergence
  Plant response rating, Sowthistle: 100
[17]; 62 g ai/ha, Preemergence
  Sowthistle plant response rating: 100
[17]; Preemergence, 31 g ai/ha
  Plant response rating, Sowthistle: 100
[18]; 62 g ai/ha
  Dayflower plant response rating: 100
[18]; 16 g ai/ha
  Plant response rating, Dayflower: 65
[18]; 31 g ai/ha
  Plant response rating, Dayflower: 90
